# Earlier results as cited in patent US20040258778A1, “Lactation cessation and breast engorgement compositions and method of use” (priority 2003, published 2004).
# Test system: lactating women
smiles,measurement,setting,value
CC(C)C[C@H]1C(=O)N2CCC[C@H]2[C@]2(O)O[C@](NC(=O)[C@@H]3C=C4c5cccc6[nH]c(Br)c(c56)C[C@H]4N(C)C3)(C(C)C)C(=O)N12 [bromocriptine],"rebound engorgement, share of the time","after a two-week course of treatment ends, according to the official labeling",up to 40%
same,very serious side effects reported,"use to suppress lactation (Iffy, 1998)","strokes, seizures (convulsions), intracranial bleeding, cerebral edema, and heart attacks"
